Assay results published in paper PMC3240716 (Journal of medicinal chemistry, 2011).
Entries after “also recorded” stand apart in the source; their conditions may differ. One block for each compound: values may come before it.

Tests used:
[1] = biological target: Hα4β2 nAChRs (Homo sapiens, UniProt P17787+P43681); experiment: Calcium accumulation assay, HEK ts201 cells stably expressing Hα4β2 nAChRs; assay type: cell-based; conditions: for effect / activity on Hα4β2 nAChRs: up to 100 µM
[2] = biological target: Hα3β4 nAChRs (Homo sapiens, UniProt P30926+P32297); experiment: Calcium accumulation assay, HEK ts201 cells stably expressing Hα3β4 nAChRs; assay type: cell-based; conditions: for effect / activity on Hα3β4 nAChRs: up to 100 µM
[3] = 30 µM compound, competitive vs non-competitive test, n=4
[4] = approximate, concentration used in Figure 1

Hα3β4 nAChRs, sequence (P32297 32-505): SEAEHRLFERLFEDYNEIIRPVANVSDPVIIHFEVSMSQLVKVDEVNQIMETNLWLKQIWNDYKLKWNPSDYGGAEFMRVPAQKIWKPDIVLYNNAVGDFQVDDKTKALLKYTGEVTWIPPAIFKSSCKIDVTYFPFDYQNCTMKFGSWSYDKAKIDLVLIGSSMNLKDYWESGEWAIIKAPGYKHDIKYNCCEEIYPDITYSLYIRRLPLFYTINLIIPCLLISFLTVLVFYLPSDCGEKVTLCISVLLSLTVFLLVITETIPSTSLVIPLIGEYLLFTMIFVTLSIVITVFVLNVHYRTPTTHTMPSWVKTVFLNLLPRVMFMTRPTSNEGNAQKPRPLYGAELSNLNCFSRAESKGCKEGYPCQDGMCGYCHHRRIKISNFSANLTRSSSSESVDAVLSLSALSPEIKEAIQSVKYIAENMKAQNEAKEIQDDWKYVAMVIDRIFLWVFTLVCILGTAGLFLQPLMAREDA
Hα3β4 nAChRs, sequence (P30926 22-498): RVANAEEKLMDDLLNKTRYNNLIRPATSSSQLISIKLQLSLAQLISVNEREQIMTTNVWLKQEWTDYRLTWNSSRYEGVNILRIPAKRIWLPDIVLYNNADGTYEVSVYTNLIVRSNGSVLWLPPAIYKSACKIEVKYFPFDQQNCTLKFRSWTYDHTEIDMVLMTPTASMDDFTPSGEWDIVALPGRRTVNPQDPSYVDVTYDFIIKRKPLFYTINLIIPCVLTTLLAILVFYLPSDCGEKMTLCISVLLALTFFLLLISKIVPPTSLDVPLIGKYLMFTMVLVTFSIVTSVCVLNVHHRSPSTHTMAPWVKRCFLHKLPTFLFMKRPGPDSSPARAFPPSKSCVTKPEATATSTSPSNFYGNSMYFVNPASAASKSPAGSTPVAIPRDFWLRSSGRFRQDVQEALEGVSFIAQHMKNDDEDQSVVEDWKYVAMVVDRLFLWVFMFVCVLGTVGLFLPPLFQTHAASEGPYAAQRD
Hα4β2 nAChRs, sequence (P43681 29-627 limits assumed): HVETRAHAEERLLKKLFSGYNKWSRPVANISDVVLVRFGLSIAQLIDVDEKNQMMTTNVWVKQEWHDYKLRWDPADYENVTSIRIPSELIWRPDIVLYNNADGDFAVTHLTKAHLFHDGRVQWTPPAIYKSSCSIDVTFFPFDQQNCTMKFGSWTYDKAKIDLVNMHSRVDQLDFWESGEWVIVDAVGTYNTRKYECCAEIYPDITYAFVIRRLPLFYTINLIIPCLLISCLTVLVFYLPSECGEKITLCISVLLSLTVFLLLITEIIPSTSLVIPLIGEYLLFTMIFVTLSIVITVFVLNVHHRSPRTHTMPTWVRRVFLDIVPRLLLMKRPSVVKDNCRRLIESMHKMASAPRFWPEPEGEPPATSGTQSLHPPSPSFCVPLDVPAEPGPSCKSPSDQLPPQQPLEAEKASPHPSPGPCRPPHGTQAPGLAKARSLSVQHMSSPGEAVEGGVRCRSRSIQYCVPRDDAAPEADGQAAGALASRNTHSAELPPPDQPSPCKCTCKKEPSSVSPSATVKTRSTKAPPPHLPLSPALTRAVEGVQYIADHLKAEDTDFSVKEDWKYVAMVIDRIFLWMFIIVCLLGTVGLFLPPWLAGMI
Hα4β2 nAChRs, sequence (P17787 26-502): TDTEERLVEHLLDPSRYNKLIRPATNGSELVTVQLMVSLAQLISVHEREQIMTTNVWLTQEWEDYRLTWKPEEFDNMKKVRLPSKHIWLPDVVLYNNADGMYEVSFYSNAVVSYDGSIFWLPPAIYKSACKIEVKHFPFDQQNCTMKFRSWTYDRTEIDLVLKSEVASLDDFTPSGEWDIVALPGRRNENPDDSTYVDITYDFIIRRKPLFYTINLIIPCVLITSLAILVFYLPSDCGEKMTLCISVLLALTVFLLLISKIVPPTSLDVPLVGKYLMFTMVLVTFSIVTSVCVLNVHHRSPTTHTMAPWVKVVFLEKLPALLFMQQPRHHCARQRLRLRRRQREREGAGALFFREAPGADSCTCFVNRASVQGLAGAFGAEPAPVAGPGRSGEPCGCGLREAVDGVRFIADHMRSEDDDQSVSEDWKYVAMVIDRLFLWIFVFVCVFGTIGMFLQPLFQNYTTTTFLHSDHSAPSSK

change in potency for Hα4β2 nAChRs ([1]; compared to lead compound 1): no significant change | fold decrease in potency for Hα3β4 nAChRs ([2]; compared to lead compound 1): 2 fold
Compound: O=C(CN1CCN(S(=O)(=O)c2ccc(F)cc2)CC1)Nc1ccccc1 [Compound 15, 2-(4-((4-fluorophenyl)sulfonyl)piperazin-1-yl)-N-phenylacetamide]

change in potency for Hα4β2 nAChRs ([1]; compared to lead compound 1): no significant change | change in potency for Hα3β4 nAChRs ([2]; compared to lead compound 1): no significant change
Compound: COc1ccc(S(=O)(=O)N2CCN(CC(=O)Nc3ccccc3F)CC2)cc1 [Compound 19, N-(2-fluorophenyl)-2-(4-((4-methoxyphenyl)sulfonyl)-piperazin-1-yl)acetamide]

fold decrease in potency for Hα4β2 nAChRs ([1]; compared to lead compound 1): 2 fold | fold decrease in potency for Hα3β4 nAChRs ([2]; compared to lead compound 1): 3 fold
Compound: COc1ccc(NC(=O)CN2CCN(S(=O)(=O)c3ccc(F)cc3)CC2)cc1 [Compound 13, 2-(4-((4-fluorophenyl)sulfonyl)piperazin-1-yl)-N-(4-methoxyphenyl)acetamide]

change in potency for Hα4β2 nAChRs ([1]; compared to lead compound 1): no significant change | change in potency for Hα3β4 nAChRs ([2]; compared to lead compound 1): no significant change
Compound: O=C(CN1CCN(S(=O)(=O)c2ccc(F)cc2)CC1)Nc1ccc(F)cc1 [Compound 14, N-(4-fluorophenyl)-2-(4-((4-fluorophenyl)sulfonyl)-piperazin-1-yl)acetamide]

fold decrease in potency for Hα4β2 nAChRs ([1]; compared to analog 16): 2 fold | fold increase in potency for Hα3β4 nAChRs ([2]; compared to analog 16): 4 fold
Compound: COc1ccc(NC(=O)CN2CCN(S(=O)(=O)c3ccccc3F)CC2)cc1 [Compound 21, 2-(4-((2-fluorophenyl)sulfonyl)piperazin-1-yl)-N-(4-methoxyphenyl)acetamide]

fold decrease in potency for Hα4β2 nAChRs ([1]; compared to lead compound 1): 2 fold | fold decrease in potency for Hα3β4 nAChRs ([2]; compared to lead compound 1): 2 fold
Compound: COc1ccc(S(=O)(=O)N2CCN(CC(=O)Nc3ccc(F)cc3)CC2)cc1 [Compound 28, N-(4-fluorophenyl)-2-(4-((4-methoxyphenyl)sulfonyl)-piperazin-1-yl)acetamide]

Continued, compound first:

Compound: O=C(CN1CCN(S(=O)(=O)c2ccccc2)CC1)Nc1ccccc1F [Compound 18, N-(2-fluorophenyl)-2-(4-(phenylsulfonyl)piperazin-1-yl)acetamide]
fold increase in potency for Hα4β2 nAChRs ([1]; compared to lead compound 1): 2 fold | fold increase in potency for Hα3β4 nAChRs ([2]; compared to lead compound 1): 2 fold

Compound: O=C(CN1CCN(S(=O)(=O)c2ccccc2F)CC1)Nc1ccc(C(=O)O)cc1 [Compound 23, 4-(2-(4-((2-fluorophenyl)sulfonyl)piperazin-1-yl)acetamido)benzoic acid]
effect / activity on Hα4β2 nAChRs [1]: loss of activity | effect / activity on Hα3β4 nAChRs [2]: loss of activity

Compound: O=C(CN1CCN(S(=O)(=O)c2cccnc2)CC1)Nc1ccccc1F [Compound 17, N-(2-fluorophenyl)-2-(4-(pyridin-3-ylsulfonyl)piperazin-1-yl)acetamide]
fold decrease in potency for Hα4β2 nAChRs ([1]; compared to lead compound 1): 2 fold | fold decrease in potency for Hα3β4 nAChRs ([2]; compared to lead compound 1): 5 fold

Compound: O=C(CN1CCN(S(=O)(=O)c2ccccc2F)CC1)Nc1cc[nH]n1 [Compound 24, 2-(4-((2-fluorophenyl)sulfonyl)piperazin-1-yl)-N-(1H-pyrazol-3-yl)acetamide]
effect / activity on Hα4β2 nAChRs [1]: loss of activity | effect / activity on Hα3β4 nAChRs [2]: loss of activity

Compound: COC(=O)c1ccc(NC(=O)CN2CCN(S(=O)(=O)c3ccccc3F)CC2)cc1 [Compound 22, methyl 4-(2-(4-((2-fluorophenyl)sulfonyl)piperazin-1-yl)acetamido)benzoate]
change in potency for Hα4β2 nAChRs ([1]; compared to analog 16): no significant change | fold increase in potency for Hα3β4 nAChRs ([2]; compared to analog 16): 8 fold

Compound: O=C(CN1CCN(S(=O)(=O)c2ccccc2F)CC1)Nc1ccc(F)cc1 [Compound 20, N-(4-fluorophenyl)-2-(4-((2-fluorophenyl)sulfonyl)-piperazin-1-yl)acetamide]
change in potency for Hα4β2 nAChRs ([1]; compared to analog 16): no change | fold increase in potency for Hα3β4 nAChRs ([2]; compared to analog 16): 6 fold

Compound: O=C(CN1CCN(S(=O)(=O)c2ccc(F)cc2)CC1)Nc1ccccc1F [Compound 1, N-(2-fluorophenyl)-2-(4-((4-fluorophenyl)sulfonyl)piperazin-1-yl)acetamide]
effect on epibatidine concentration-response, Hα4β2 nAChRs [1, 3]: reduced the maximum efficacy | IC70, Hα4β2 nAChRs [1, 4]: ~30 µM | effect on epibatidine concentration-response, Hα3β4 nAChRs [2, 3]: reduced the maximum efficacy | IC70, Hα3β4 nAChRs [2, 4]: ~30 µM

Compound: O=C(CN1CCN(S(=O)(=O)c2ccccc2F)CC1)Nc1ccccc1F [Compound 16, N-(2-fluorophenyl)-2-(4-((2-fluorophenyl)sulfonyl)-piperazin-1-yl)acetamide]
change in potency for Hα4β2 nAChRs ([1]; compared to lead compound 1): no significant change

Compound: O=S(=O)(c1ccc(F)cc1)N1CCNCC1 [Compound 3, 1-([4-fluorophenyl]sulfonyl)piperazine]
effect / activity on Hα4β2 nAChRs [1]: no effect | effect / activity on Hα3β4 nAChRs [2]: no effect

Compound: COc1ccc(NC(=O)CN2CCN(S(=O)(=O)c3cccnc3)CC2)cc1 [Compound 26, N-(4-methoxyphenyl)-2-(4-(pyridin-3-ylsulfonyl)-piperazin-1-yl)acetamide]
change in potency for Hα4β2 nAChRs ([1]; compared to lead compound 1): significant decrease | change in potency for Hα3β4 nAChRs ([2]; compared to lead compound 1): significant decrease

Compound: O=C(CN1CCN(S(=O)(=O)c2ccc(F)cc2)CC1)Nc1cc[nH]n1 [Compound 12, 2-(4-((4-fluorophenyl)sulfonyl)piperazin-1-yl)-N-(1H-pyrazol-3-yl)acetamide]
change in potency for Hα4β2 nAChRs ([1]; compared to lead compound 1): significant decrease | effect / activity on Hα4β2 nAChRs [1]: abolished activity; also recorded: loss of activity | change in potency for Hα3β4 nAChRs ([2]; compared to lead compound 1): significant decrease | effect / activity on Hα3β4 nAChRs [2]: abolished activity; also recorded: loss of activity

Compound: O=C(CN1CCN(S(=O)(=O)c2ccc(F)cc2)CC1)Nc1ccc2[nH]ncc2c1 [Compound 11, 2-(4-((4-fluorophenyl)sulfonyl)piperazin-1-yl)-N-(1H-indazol-5-yl)acetamide]
change in potency for Hα4β2 nAChRs ([1]; compared to lead compound 1): slight increase | fold decrease in potency for Hα3β4 nAChRs ([2]; compared to lead compound 1): 3 fold
